Measurements published in EP4790048A1, “S1PR4 REGULATOR COMPOUND FOR AUTOIMMUNE DISEASE TREATMENT AND APPLICATION THEREOF” (Shengyuan Zetong (Shanghai) Pharmaceutical Co., Ltd, priority 2023, dated 2025).

Assays:
[1] = Pharmacokinetic property testing in rats; type: in vivo, SD rats; conditions: for CL_obs / Vss_obs / AUC(0-t) / Cmax / half-life / Tmax / F (%): male SD rats; for AUC(0-t) / Cmax / half-life / Tmax / bioavailability: Sprague-Dawley, rat, in vivo; for Tmax: 3 per group; for bioavailability: male, oral, 10 mg/kg; for F (%): oral bioavailability, PO 10 mg/kg vs IV 1 mg/kg
From the text: In the structure-activity relationship discussion, the inventors obtained key compound 22. Based on compound 22, the polar head of the compound was modified as chiral pyrrolidine carboxylic acid, yielding selective S1PR4 agonists 30 and 67. We conducted pharmacokinetic property analyses on compounds 22, 30, and 67, respectively.

mouse = assay: DSS mouse acute UC model, dosing concurrent with modeling (Example 7); type: in vivo; conditions: intragastric, Compound 30 0.3, 1, 3 mg/kg, Compound 67 1 mg/kg; for colon length: positive control RPC1063 1 mg/kg
Experimental: Mouse models were established using DSS, with the protocol being 2.5% DSS in drinking water for 5 days followed by ad libitum normal drinking water for 2 days. Intragastric administration was performed concurrently with modeling, and RPC1063 was used as the positive control drug. The specific groupings were as follows: RPC1063 was administered intragastrically at 1 mg/kg. Compound 30 was tested at three doses: 0.3 mg/kg, 1 mg/kg, and 3 mg/kg. Compound 38 was administered at 5 mg/kg, while Compounds 53, 67, 77, and 80 were each administered at 1 mg/kg.

SD rats = assay: MIA-induced osteoarthritis (OA) model in rats; type: in vivo; conditions: for gross observation of knee joint femoral condyle cartilage: Day 15 dissection, 5 rats per group
Experimental: SD rats, approximately 200 g, male. Purchased from Shanghai Bikai Animal Co., Ltd. Adaptive feeding was conducted for about 7 days.
3.1.1 Anesthesia: the rat was placed into the anesthesia box, the O2 gas source and the gas delivery pump were turned on, and the gas adjustment knob was rotated to set the ratio of O2 to isoflurane at 8:2. The anesthesia depth knob was adjusted: first the indicator was turned to 3 to induce deep anesthesia in the rat; during the subsequent surgical procedure, the indicator was adjusted to 1.5 to maintain anesthesia. The three-way valve was opened to deliver gas into both the anesthesia box and the rat anesthesia mask.
The syringe needle was inserted at a 45° angle to the plateau along the lateral side of the patellar ligament, as shown in the figure below. The Control group is injected with 50 µl of 0.9% sterile normal saline, while the other groups are injected with 50 µl of sterile normal saline containing 3 mg of MIA. After the procedure, the rat was removed, placed in a breeding cage, and irradiated with an incandescent lamp to help restore body temperature until the rat recovers from anesthesia.
The Control group was administered 5% DMSO + 35% PEG400 + 60% normal saline. The compounds were dissolved in a system consisting of 5% dimethyl sulfoxide (DMSO), 35% polyethylene glycol 400 (PEG 400), and 60% normal saline. The drug solutions were prepared on the evening one day before administration.
The rats were acclimated for 1 week and randomly divided into groups, with a total of 10 rats. The Control group was administered 5% DMSO + 35% PEG400 + 60% normal saline, while the other groups were given the test compounds dissolved in 5% DMSO + 35% PEG400 + 60% normal saline.
3.4.1. From Day 1 to Day 14 of the experiment, the rats were administered intragastrically once daily, with a gavage volume of 5 mL/kg. The Control group and Model group were given 5% DMSO + 35% PEG400 + 60% normal saline throughout the experiment, while the other groups were administered the corresponding drugs.
On Day 7 and Day14 of the experiment, behavioral and joint pain tests were performed on the rats. To minimize confounding factors, the tests were conducted 1 hour after administration at a fixed time, preventing variations in the rats' condition at different time points from affecting the experimental results. The rats were allowed to acclimate to the environment for 20 minutes before the start of the experiment. • (1) Observation of walking distance and rearing times within five minutes: the dimensions of the resin box were measured and a paper sheet of the corresponding size was prepared. 1 cm × 1 cm grids were drawn on the paper sheet. The paper sheet was sealed with a transparent tape to prevent damage from rat excrement. Then the paper sheet with 1 cm × 1 cm grids was placed into the transparent resin box, ensuring a flat bottom. A camera device was used to record the walking process and trajectory of the rat within 5 minutes, and the walking distance and rearing times of the rat were counted. • (2) Joint Pain Assessment: After fixing the rat and allowing it to calm down, its knee joint was gently bent. […] The knee joint pain severity in rats is reflected by the scores of leg withdrawal and vocalization. The joint pain assessment was performed every 5 seconds for a total of 5 times.
On Day 15 of the experiment, the rats were anesthetized, and blood was collected from their eyeballs. The serum was left to stand overnight at 4°C, centrifuged at 3600 rpm for 15 minutes at 4°C. The serum was aspirated and stored at -80°C. The rats were sacrificed by cervical dislocation. An incision was made along the knee joint on ice to remove fur, muscle, and other tissues. For each group, 5 rats were used; bilateral knee joints were dissected, and the color, roughness, and integrity of the femoral condyle surface were observed. The knee joint cartilage was then harvested and cryopreserved at -80°C. […]

[2] = DAY7, 0.3 mg/kg intragastric once daily, vs Model group
[3] = DAY7, 3 mg/kg intragastric once daily, vs Model group
[4] = DAY14, 0.3 mg/kg, vs Model group

| SMILES | CL_obs ([1]; IV (1 mg/kg)) [mL/min/kg] | Vss_obs ([1]; IV (1 mg/kg)) [L/kg] | CL_obs ([1]; PO (10 mg/kg)) [mL/min/kg] | Vss_obs ([1]; PO (10 mg/kg)) [L/kg] | AUC(0-t) ([1]; IV (1 mg/kg)) [ng·h/mL] | Cmax ([1]; IV (1 mg/kg)) [ng/mL] | half-life ([1]; IV (1 mg/kg)) [h] | Tmax ([1]; IV (1 mg/kg)) [h] | AUC(0-t) ([1]; PO (10 mg/kg)) [ng·h/mL] | Cmax ([1]; PO (10 mg/kg)) [ng/mL] | half-life ([1]; PO (10 mg/kg)) [h] | Tmax ([1]; PO (10 mg/kg)) [h] | bioavailability [1] [%] | F (%) [1] [%] | DAI scores (mouse) | body weight (mouse) | colon length (mouse) | OARSI score (severity of knee osteoarthritis) (SD rats; 1 mg/kg, vs Model group) | OARSI score (severity of knee osteoarthritis) (SD rats; 3 mg/kg, vs Model group) | pain index (SD rats; [2]) | other results |
| --- | --- | --- | --- | --- | --- | --- | --- | --- | --- | --- | --- | --- | --- | --- | --- | --- | --- | --- | --- | --- | --- |
| CCc1cc(/C(C)=N/OCc2ccc(-c3ccccc3)c(C)c2)ccc1CN1CC[C@H](C(=O)O)C1 [Compound 30] | 20.2 ± 7.33 | 3.59 ± 1.16 | 17 ± 1.3 | 4.08 ± 0.32 | 824 ± 284 | 438 ± 82.6 | 2.15 ± 0.06 | 0.08 | 9860 ± 794 | 1030 ± 91.9 | 2.78 ± 0.12 | 2 | 120 | 119.7 | favorable effects | concentration-dependent recovery | significant efficacy | showed significant differences | showed significant differences | significantly decreased | OARSI score (severity of knee osteoarthritis) (SD rats; 0.3 mg/kg, vs Model group): showed significant differences; five-minute walking distance (SD rats; DAY7, 0.3 mg/kg, vs Model group): increased significantly; five-minute walking distance (SD rats; DAY7, 1 mg/kg, vs Model group): increased significantly; pain index (SD rats; [3]): significantly decreased; five-minute walking distance (SD rats; [4]): increased significantly; pain index (SD rats; DAY14, 1 mg/kg, vs Model group): significantly decreased; five-minute walking distance (SD rats; DAY14, 3 mg/kg, vs Model group): increased significantly; pain index (SD rats; DAY14, 3 mg/kg, vs Model group): significantly decreased; gross observation of knee joint femoral condyle cartilage (SD rats): knee cartilage in most rats became smooth and glossy; Safranin O-Fast Green staining of knee joints (SD rats; vs Model group): enhanced safranin staining |
| CCc1cc(/C(C)=N/OCc2ccc(-c3cnc(F)cn3)c(C)c2)ccc1CN1CC[C@H](C(=O)O)C1 [Compound 67, (S, E)-1-(2-ethyl-4-(1-(((4-(5-fluoropyrazin-2-yl)-3-methylbenzyl)oxy)imino)ethyl)benzyl)pyrrolidine-3-carboxylic acid] | 19.8 ± 0.67 | 1.52 ± 0.02 | 25.8 ± 4.5 | 4.88 ± 1.17 | 836 ± 27 | 958 ± 45.9 | 1.18 ± 0.01 | 0.08 | 6370 ± 1510 | 986 ± 277 | 2.17 ± 0.11 | 1.83 ± 1.89 | 76.2 | 76.21 | favorable effects | less body weight loss | significant efficacy | showed significant effects | showed significant effects | significantly decreased | pain index (SD rats; DAY7, 1 mg/kg intragastric once daily, vs Model group): significantly decreased; five-minute walking distance (SD rats; DAY7, 1 mg/kg, vs Model group): increased significantly; pain index (SD rats; [3]): significantly decreased; five-minute walking distance (SD rats; [4]): increased significantly; five-minute walking distance (SD rats; DAY14, 1 mg/kg, vs Model group): increased significantly; pain index (SD rats; DAY14, 1 mg/kg, vs Model group): significantly decreased; five-minute walking distance (SD rats; DAY14, 3 mg/kg, vs Model group): increased significantly; pain index (SD rats; DAY14, 3 mg/kg, vs Model group): significantly decreased; gross observation of knee joint femoral condyle cartilage (SD rats): cartilage of most rat knee joints became smooth and bright; serum IL-10 level (SD rats; Elisa, vs Model group): tended to upregulate; serum IL-17 level (SD rats; Elisa, vs Model group): tended to upregulate; Safranin O-Fast Green staining of knee joints (SD rats; vs Model group): enhanced Safranin O staining |
